The nature of experiment [1]: Selectivity index, ratio of Ki for bovine eNOS to KI for rat nNOS.
Experiment [2] can be described thus: Selectivity index, ratio of Ki for mouse macrophage iNOS to KI for rat nNOS.

As to `N=C(Nc1cccc(O[C@H]2CN[C@H](COCc3cccc(F)c3)C2)c1)c1cccs1`, the results for the Ratio Ki in experiment [1] and in experiment [2] were 86 and 90, respectively.

With `N=C(Nc1cccc(OC[C@@H]2C[C@@H](OCc3cccc(F)c3)CN2)c1)c1cccs1`, the Ratio Ki in experiment [1] is 18; in experiment [2], 92.

As to `N=C(Nc1ccc(OC[C@@H]2C[C@@H](Oc3cccc(NC(=N)c4cccs4)c3)CN2)cc1)c1cccs1`, the Ratio Ki in experiment [1] worked out at 142; in experiment [2] it was 163.

Source of the values: ChEMBL document CHEMBL3351383, “Combination of chiral linkers with thiophenecarboximidamide heads to improve the selectivity of inhibitors of neuronal nitric oxide synthase” (Bioorg Med Chem Lett, 2014).
